Reference: patent publication US8110193B2, “Methods for conditioning a subject for hematopoietic cell transplantation” (City of Hope, priority 2007, dated 2012)

Tests used:
[1] = tested on: IL-2, IFN-γ, TNF-α, and IL-6; test: Cytokines in culture supernatant of anti-CD3-stimulated spleen cells (ELISA); assay type: cell-based, mouse (BALB/c); conditions: 24, 48, 72 hours
Protocol: (§1) C. […] There were seven mice in each group.
One of the side effects of anti-CD3-conditioning is the cytokine storm triggered by anti-CD3 activation of T cells. […] After anti-CD3-stimulation, IL-2 concentration peaked at 48 hours, and IFN-γ, TNF-α, and IL-6 all peaked at 72 hours after culture.

[2] = tested on: IL-2, IFN-γ, TNF-α, and IL-6; test: Serum cytokines after anti-CD3 injection (cytokine storm); assay type: in vivo, mouse (BALB/c)
From the text: as §1

host T cells = test: Apoptosis and yield of residual host T cells in spleen of conditioned mice; assay type: in vivo, mouse (BALB/c); conditions: low-dose (40 or 100 μg/g) SAHA co-injected with anti-CD3
[3] = Body temperature and tolerability after anti-CD3 injection

## O=C(CCCCCCC(=O)Nc1ccccc1)NO [SAHA, suberoylanilide hydroxamic acid]
[1]; 0.5 μM SAHA
  IL-2, IFN-γ, TNF-α, IL-6 production in culture: reduced cytokine production significantly at all time points
[1]; 1 μM SAHA
  IL-2, IFN-γ, TNF-α, IL-6 production in culture: nearly undetectable
[2]; SAHA 40 μg/g co-injected with anti-CD3 5 μg/g
  reduction of serum IL-2, IFN-γ, TNF-α, IL-6 at peak time points vs anti-CD3 alone: more than 2 fold
[2]; SAHA 200 μg/g co-injected with anti-CD3, data not shown
  serum cytokine reduction compared to SAHA 40 μg/g: reductions in serum cytokine levels that were similar
Host T cells
  apoptosis of host T cells and yield of residual live T cells in spleen: did not significantly increase apoptosis of host T cells or reduce the yield of residual live T cells
[3]; SAHA 40 μg/g co-injected with anti-CD3
  hypothermia after anti-CD3 injection: significantly reduced hypothermia
[3]; SAHA 200 μg/g co-injected with anti-CD3
  adverse signs: severe diarrhea
[3]; SAHA 200 μg/g co-injected, five days after anti-CD3-conditioning
  mice that died: 30%
